# Test results as given in patent US9725418B2, “Pyrimidine compound” (Sumitomo Chemical Company, Limited, priority 2014, dated 2017).
# Tests used:
# Type in all cases: in vivo
# [1] = tested on: cabbage moth (Plutella xylostella); test: Test Example 1: cabbage foliar spray, cabbage moth mortality; conditions: 120 h, 20 mL sprayed onto cabbage, second instar larvae, 25° C., after 5 days
# Description: (§1) A formulation of the compound of the present invention that was prepared according to Formulation Example 5 was diluted with water so that the active ingredient concentration was set to 500 ppm to prepare a testing agent solution.
# Twenty (20) mL of the above-mentioned testing medicinal solution was sprayed onto a cabbage (Brassicae oleracea) in the third to fourth leaf stage. After the testing medicinal solution was dried, the aerial part of the plant was cut, and then was installed in a polyethylene cup (volume 100 mL) together with five heads of cabbage moth (Plutella xylostella) at the second instar larval stages. The cup was held at 25° C. and after 5 days, the number of surviving insects was counted and the mortality was calculated according to the following equation. Mortality (%)=(Number of dead larvae/Number of tested larvae)×100
# [2] = tested on: housefly (Musca domestica); test: Test Example 9: filter paper with sucrose bait, housefly mortality; conditions: 0.7 mL on filter paper, female adults, after 24 hours, read-out: Mortality of insects
# Description: (§2) A Formulation of the compound of the present invention that was prepared according to Formulation Example 5 was diluted with water so that the active ingredient concentration was set to 500 ppm to prepare a testing agent solution.
# The bottom of the polyethylene cup having 5.5 cm diameter was matted with the same size of a filter paper, and 0.7 mL of the above-mentioned testing agent solution was added dropwise to the filter, and 30 mg of sucrose as bait was placed in the cup uniformly. Ten (10) heads of female adult housefly (Musca domestica) were released into the polyethylene cup and the cup was covered with the lid. After 24 hours, the life and death of housefly was examined, and the number of died insects was counted and the mortality of insects was calculated by the following equation. Mortality of insects (%)=(Number of dead insects/Number of tested insects)×100
# [3] = tested on: cotton aphid (Aphis gossypii); test: Test Example 7: cucumber root soaking, cotton aphid controlling value; conditions: 500 ppm, cucumber root soaked in 5 mL; inoculated one day after treatment; 7 days post the inoculation
# Description: as §1
# Soils were washed off from the cucumber seedlings (on the developmental stage of the first true leaf). The root of the cucumber seedlings was soaked in the above-mentioned test solutions 5 mL, and at one day after the treatment, thirty heads of cotton aphid (Aphis gossypii) (all stages of life) were inoculated onto the leaves of the cucumber. At 7 days post the inoculation, the number of the surviving insets that were parasitic on the leaves of the cucumber was examined, and the controlling value was calculated by the following equation. Controlling value (%)={1−(Cb×Tai)/(Cai×Tb)}×100 wherein the symbols in the formula represent the following descriptions.
# Cb: Number of the insects before treatment in untreated area;
# Cai: Number of the surviving parasitic insects at the time of the investigation in untreated area;
# Tb: Number of the insects before treatment in treated area;
# Tai: Number of the surviving parasitic insects at the time of the investigation in treated area;
# [4] = tested on: African malaria mosquito (Anopheles gambiae); test: Test Example 11: topical application, African malaria mosquito mortality; conditions: 48 h, 167 ppm in acetone, 0.3 μL topically applied to pronotum of female adults, two days post the topical application, read-out: Mortality of insects
# Description: Ten (10) mg of the compound of the present invention was dissolved into 3 mL of acetone. Further the agent solution was diluted with acetone to twenty times to prepare the testing agent solution (the active ingredient concentration 167 ppm). African malaria mosquito (Anopheles gambiae) adults were subjected to an anesthetic treatment with carbon dioxide gas, and then each of 0.3 μL of the above-mentioned testing agent solution was topically applied to a pronotum of a female insect. A test was carried out 10 heads per group, and after the topical application, the insects were transferred to a cup, and fed with 5% sugar solution. At two days post the topical application, the life and death of African malaria mosquito was examined, and the mortality of insects was calculated by the following equation. Mortality of insects (%)=(Number of dead insects)/(Number of tested insects)×100
# [5] = tested on: tobacco cutworm (Spodoptera litura); test: Test Example 2: artificial diet, tobacco cutworm mortality; conditions: 144 h, 2 mL on artificial diet Insecta LF, fourth instar larvae, after 6 days
# Description: as §1
# The bottom of the polyethylene cup having 5.5 cm diameter was matted with the same size of a filter paper. Insecta LF (manufactured by NOSAN CORPORATION), an artificial diet, was sliced to 6 mm in thickness, cut into half, and then placed on the filter paper. Then, 2 mL of the test solution was poured into the polyethylene cup. After the test solution was air-dried, 5 fourth instar larvae of tobacco cutworm (Spodoptera litura) were released into the polyethylene cup and the cup was sealed with a lid. After 6 days, the number of surviving tobacco cutworm (Spodoptera litura) was counted and the mortality was calculated according to the following equation. Mortality (%)=(Number of dead larvae/Number of tested larvae)×100
# [6] = tested on: summer fruit tortrix (Adoxophyes orana); test: Test Example 3: artificial diet, summer fruit tortrix mortality; conditions: 168 h, 1 mL on artificial diet SilkMate 2S, first instar larvae, after 7 days
# Description: as §1
# A filter paper having a diameter of 5.5 cm was spread on the bottom of a polyethylene cup having a diameter of 5.5 cm. SilkMate 2S (manufactured by NOSAN CORPORATION), an artificial diet, was sliced to 2 mm in thickness and then placed on the filter paper. Then, 1 mL of the test solution (500 ppm) was poured into the polyethylene cup. After the test solution was air-dried, the filter paper having a diameter of 5.5 cm was put on the artificial diet, and 30 first instar larvae of summer fruit tortrix (Adoxophyes orana) were released on the filter paper, and the cup was sealed with a lid. After 7 days, the number of surviving summer fruit tortrix was counted and mortality was calculated according to the following equation. Mortality (%)=(Number of dead larvae/Number of tested larvae)×100
# [7] = tested on: two spotted spider mites (Tetranychus urticae); test: Test Example 8: kidney bean spray, two spotted spider mite controlling value; conditions: 500 ppm, sprayed on kidney beans; female adults; 25° C.; 13 days post the treatment
# Description: as §1
# Forty (40) heads of female adult of two spotted spider mites (Tetranychus urticae) were released onto kidney beans (immediately after the development of the primary leaf). Next day, the above-mentioned test solutions were sprayed with a spray gun in the dripping amount of the chemical solution. The plants were placed in a thermostatic breeding room (25° C.), and at 13 days post the treatment, the number of the surviving insects was examined, and the controlling value was calculated by the following equation. Controlling value (%)={1−(Number of the surviving female adult insects in treated area}/(Number of the surviving female adult insects in untreated area)×100
# [8] = tested on: rice planthopper (Nilaparvata lugens); test: Test Example 5: rice seedling plant foot irrigation, rice planthopper controlling value; conditions: 500 ppm, 5 mL irrigated into plant foot of rice seedling; larvae released after 7 days; counted after 6 days
# Description: (§3) A formulation of the compound of the present invention that was prepared according to Formulation Example 5 was diluted with water so that the active ingredient concentration was set to 500 ppm to prepare a testing agent solution. Rice seedling (on the developmental stage of the second true leaf) was planted in a polyethylene cup, and the above-mentioned test solutions 5 mL were irrigated into the plant foot, and the plants were held at 25° C. in a greenhouse for 7 days. Twenty (20) heads of three to four instar larvae of rice planthopper (Nilaparvata lugens) were released and the plants were held in a greenhouse at 25° C. After 6 days, the number of the surviving insects that were parasitic on the leaves of the rice was examined and the controlling value was calculated by the following equation. Controlling value (%)={1−(Cb×Tai)/(Cai×Tb)}×100 wherein the symbols in the formula represent the following descriptions. Cb: Number of the insects before treatment in untreated area; Cai: Number of the surviving parasitic insects at the time of the investigation in untreated area; Tb: Number of the insects before treatment in treated area; Tai: Number of the surviving parasitic insects at the time of the investigation in treated area;
# [9] = tested on: rice planthopper (Nilaparvata lugens); test: Test Example 4: rice seedling spray, rice planthopper controlling value; conditions: 500 ppm, 10 mL sprayed on rice seedling; three to four instar larvae; 25° C.; after 6 days
# Description: as §3, with “solutions 10” for “solutions 5”, “were sprayed. After” for “were irrigated into”, “the test solution was air-dried, twenty” for “the plant foot, and the plants were held at 25° C. in a greenhouse for 7 days. Twenty”
# [10] = tested on: cotton aphid (Aphis gossypii); test: Test Example 6: cucumber seedling spray, cotton aphid controlling value; conditions: 500 ppm, 20 mL sprayed on cucumber seedling; 6 days post the spraying
# Description: A formulation of the compound of the present invention that was prepared according to Formulation Example 5 was diluted with water so that the active ingredient concentration was set to 500 ppm to prepare a testing agent solution. Cucumber seedling on the developmental stage of the first true leaf) was planted in a plastic cup, and about 30 heads of cotton aphid (Aphis gossypii) were released onto the leaves of the cucumber and allowed to stand for 1 day. The above-mentioned test solutions 20 mL were sprayed into the seedling. At 6 days post the spraying, the number of the surviving insects that were parasitic on the leaves of the cucumber was examined and the controlling value was calculated by the following equation. Controlling value (%)={1−(Cb×Tai)/(Cai×Tb)}×100 wherein the symbols in the formula represent the following descriptions. Cb: Number of the insects before treatment in untreated area; Cai: Number of the surviving parasitic insects at the time of the investigation in untreated area; Tb: Number of the insects before treatment in treated area; Tai: Number of the surviving parasitic insects at the time of the investigation in treated area;
# [11] = tested on: common house mosquito (Culex pipiens pollens); test: Test Example 10: larvae in treated water, common house mosquito mortality; conditions: active ingredient concentration of 3.5 ppm in water, final instar larvae, after 24 hours, read-out: Mortality of insects
# Description: as §2
# The above-mentioned testing agent solution 0.7 mL was added to 100 mL of ion-exchange water (the active ingredient concentration of 3.5 ppm). Twenty (20) heads of the final instar larvae of common house mosquito (Culex pipiens pollens) was released onto the above-mentioned solution. After 24 hours, the life and death of common house mosquito was examined, and the number of died insects was counted and the mortality of insects was calculated by the following equation. Mortality of insects (%)=(Number of dead insects)/(Number of tested insects)×100
compound,measurement,setting,value
CCc1ncnc(NCCc2ccc(C(F)(F)F)cc2)c1Cl [compound of the present invention],mortality at 500 ppm,[1],≥ 80%
same,mortality at 500 ppm,[2],100%
same,Controlling value,[3],≥ 90%
same,mortality at 167 ppm,[4],≥ 90%
same,mortality at 500 ppm,[5],≥ 80%
same,mortality at 500 ppm,[6],≥ 90%
same,Controlling value,[7],≥ 90%
same,Controlling value,[8],≥ 90%
same,Controlling value,[9],≥ 90%
same,Controlling value,[10],≥ 90%
same,mortality at 3.5 ppm,[11],≥ 90%
